# Values of other authors as cited in PMC7343746, “(2S, 4R)-4-[^18F]Fluoroglutamine for In vivo PET Imaging of Glioma Xenografts in Mice: an Evaluation of Multiple Pharmacokinetic Models” (Molecular Imaging and Biology, 2020).
# Tested on: alanine aminotransferase
# Parameters: method as in PMID 22613816
# Conditions: cited from earlier work
smiles,measurement,value
"N[C@@H](C[C@@H]([18F])C(=O)O)C(=O)O [(2S, 4R)-4-[^18F]fluoroglutamate]",Efficiency of processing and defluorination versus non-fluorinated natural counterpart,5.6 times
